Earlier results on one molecule are cited in patent US20110166187A1, “METHODS OF USING SUSTAINED RELEASE AMINOPYRIDINE COMPOSITIONS” (priority 2004, published 2011).

This data set concerns voltage dependent, neuronal potassium channels.

With `Nc1ccncc1` [fampridine, 4-aminopyridine], the “concentrations at which it appears to be a specific blocker of voltage dependent, neuronal potassium channels” value was 1 to 2 µM.
